The record followed here is patent US20230391845A1, “GLP-1, GIP AND GLUCAGON RECEPTOR TRIPLE AGONISTS” (priority 2020, published 2023).

*1 amine or outer side, *2 acyl side, *3 side chain or, on linkers, in order; H or OH if unused. Where a SMILES comes first, the peptide text is derived from it. Side-chain parts run from the residue outwards. [ ]: non-standard residue; d: D form. The star is where a group is joined. C20 diacid = O=C(O)CCCCCCCCCCCCCCCCCCC(=O)*; γGlu = O=C(O)[C@H](CCC(=O)[*:2])N[*:1]; εLys = N[C@@H](CCCCN[*:1])C(=O)[*:2]; AEEA = NCCOCCOCC(=O)O; Aib = CC(C)(N)C(=O)O

Test [1] addresses T1, human GLP-1 receptor (Homo sapiens, UniProt P43220).
T1 construct: expressed in transfected cells; host or cells: BHK cells (parent line BHKTS13) containing CRE luciferase
Nature of the test: In vitro functional potency (CRE luciferase; whole cells), human GLP-1R. It is filed as cell-based. The following applies: BHK CRE luc2P hGLP-1R whole cells; Table 2; read-out: hGLP-1R CRE Luc EC50.
Method: The purpose of this example is to test the functional activity, or potency, of the compounds in vitro at the human and mouse GLP-1, GIP, and Gcg receptors. The in vitro functional potency is the measure of target receptor activation in a whole cell assay.
In vitro functional potency was determined by measuring the response of the target receptor in a reporter gene assay in individual cell lines. The assay was performed in stably transfected BHK cell lines that expresses one of the following G-protein coupled receptors: human GLP-1 receptor, human GIP receptor, human Gcg receptor, mouse GLP-1 receptor, mouse GIP receptor, or mouse Gcg receptor; and where each cell line contains the DNA for the cAMP response element (CRE) coupled to a promoter and the gene for firefly luciferase (CRE luciferase). When the respective receptor is activated, it results in the production of cAMP, which in turn results in expression of the luciferase protein. When assay incubation is completed, luciferase substrate (luciferin) is added resulting in the enzymatic conversion of luciferin to oxyluciferin and producing bioluminescence. The luminescence is measured as the readout for the assay.
The cells lines used in these assays were BHK cells with BHKTS13 as a parent cell line. The cell lines were derived from a clone containing the CRE luciferase element and were established by further transfection with the respective receptor to obtain the relevant cell line.
The cells were cultured at 37° C. with 5% CO2 in Cell Culture Medium. They were aliquoted and stored in liquid nitrogen. The cells were kept in continuous culture and were seeded out the day before each assay.
GLP-1R and GcgR Cell Culture Medium consisted of DMEM medium with 10% FBS, 500 µg/mL G418, and 300 µg/mL hygromycin. GIPR Cell Culture Medium consisted of DMEM medium with 10% FBS, 400 µg/mL G418, and 300 µg/mL hygromycin. Assay Buffer consisted of DMEM w/o phenol red, 10 mM Hepes, 1× Glutamax, 1% ovalbumin, and 0.1% Pluronic F-68.
• 1) Cells were plated at 5000 cells/well and incubated overnight in the assay plate. • 2) Cells were washed once in DPBS. • 3) Stocks of the test compounds and reference compounds in concentrations ranging from 100-300 pM were diluted 1:150 in Assay Buffer.
The data from the microtiter plate reader was first regressed in an Excel in order to calculate the x-axis, log scale concentrations based on the individual test compound's stock concentration and the dilutions of the assay. […] The software performs a non-linear regression (log(agonist) vs response). A minimum of two replicates was measured for each sample. The reported values are averages of the replicates.

The target in test [2] is T2, human GIP receptor (Homo sapiens, UniProt P48546).
T2 construct: expressed in transfected cells; host or cells: BHK cells (parent line BHKTS13) containing CRE luciferase
T2 sequence (P48546 22-466): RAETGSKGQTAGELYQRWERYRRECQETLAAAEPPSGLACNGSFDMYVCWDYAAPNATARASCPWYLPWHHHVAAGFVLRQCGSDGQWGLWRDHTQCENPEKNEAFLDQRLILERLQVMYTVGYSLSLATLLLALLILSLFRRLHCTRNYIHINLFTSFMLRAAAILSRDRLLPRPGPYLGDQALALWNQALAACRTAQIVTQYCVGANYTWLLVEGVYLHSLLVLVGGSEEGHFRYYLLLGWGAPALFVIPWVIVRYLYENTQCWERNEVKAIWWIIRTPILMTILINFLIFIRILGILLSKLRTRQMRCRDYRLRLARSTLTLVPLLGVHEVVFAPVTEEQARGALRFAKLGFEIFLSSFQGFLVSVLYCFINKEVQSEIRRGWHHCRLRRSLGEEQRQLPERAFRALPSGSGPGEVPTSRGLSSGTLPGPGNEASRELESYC
Put plainly: In vitro functional potency (CRE luciferase; whole cells), human GIPR. Format: cell-based. To be noted: BHK CRE luc2P hGIPR whole cells; Table 2; read-out: hGIPR CRE Luc EC50.

T1 sequence (P43220 24-463): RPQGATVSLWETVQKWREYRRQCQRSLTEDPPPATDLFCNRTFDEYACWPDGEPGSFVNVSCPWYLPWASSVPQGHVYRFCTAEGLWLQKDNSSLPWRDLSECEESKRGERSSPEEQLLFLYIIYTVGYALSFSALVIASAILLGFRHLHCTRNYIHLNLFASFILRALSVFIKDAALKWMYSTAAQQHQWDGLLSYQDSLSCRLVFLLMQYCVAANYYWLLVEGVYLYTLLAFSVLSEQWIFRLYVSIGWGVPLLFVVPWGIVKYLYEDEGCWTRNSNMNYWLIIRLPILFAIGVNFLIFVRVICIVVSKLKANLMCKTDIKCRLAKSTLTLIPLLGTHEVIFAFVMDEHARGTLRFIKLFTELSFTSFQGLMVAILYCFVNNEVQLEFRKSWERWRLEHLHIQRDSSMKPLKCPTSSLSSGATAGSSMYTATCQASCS

As for `CC(C)C[C@H](NC(=O)[C@H](CC(C)C)NC(=O)[C@H](Cc1c[nH]c2ccccc12)NC(=O)[C@H](CCC(N)=O)NC(=O)[C@@H](NC(=O)[C@H](Cc1ccccc1)NC(=O)[C@H](CCC(=O)O)NC(=O)C(C)(C)NC(=O)[C@H](C)NC(=O)[C@H](C)NC(=O)[C@H](CCC(N)=O)NC(=O)[C@H](CCCCNC(=O)[C@@H](N)CCCCNC(=O)[C@@H](N)CCCCNC(=O)CC[C@H](NC(=O)CCCCCCCCCCCCCCCCCCC(=O)O)C(=O)O)NC(=O)[C@H](CCC(=O)O)NC(=O)[C@H](CC(C)C)NC(=O)[C@H](Cc1ccc(O)cc1)NC(=O)[C@H](CCCCN)NC(=O)[C@H](CO)NC(=O)[C@H](Cc1ccc(O)cc1)NC(=O)[C@H](CC(=O)O)NC(=O)[C@H](CO)NC(=O)[C@@H](NC(=O)[C@H](Cc1ccccc1)NC(=O)[C@@H](NC(=O)CNC(=O)[C@H](Cc1c[nH]cn1)NC(=O)C(C)(C)NC(=O)[C@@H](N)Cc1c[nH]cn1)[C@@H](C)O)[C@@H](C)O)C(C)C)C(=O)N[C@@H](CCC(=O)O)C(=O)NCC(=O)NCC(=O)N1CCC[C@H]1C(=O)N[C@@H](CO)C(=O)N[C@@H](CO)C(=O)NCC(=O)N[C@@H](C)C(=O)N1CCC[C@H]1C(=O)N1CCC[C@H]1C(=O)N1CCC[C@H]1C(=O)N[C@@H](CO)C(N)=O` [Compound No. 36] (H-H[Aib]HGTFTSDYSKYLEK([εLys-εLys-γGlu-C20 diacid])QAA[Aib]EFVQWLLEGGPSSGAPPPS-NH2), the 50% effective concentration (EC50) in test [1] is 1.8 pM; in test [2], 9.3 pM.
In the same order, the values of `CC[C@H](C)[C@H](NC(=O)[C@H](CO)NC(=O)[C@H](Cc1ccc(O)cc1)NC(=O)[C@H](CC(=O)O)NC(=O)[C@H](CO)NC(=O)[C@@H](NC(=O)[C@H](Cc1ccccc1)NC(=O)[C@@H](NC(=O)CNC(=O)[C@H](Cc1c[nH]cn1)NC(=O)C(C)(C)NC(=O)[C@@H](N)Cc1c[nH]cn1)[C@@H](C)O)[C@@H](C)O)C(=O)N[C@@H](CC(C)C)C(=O)N[C@@H](CC(C)C)C(=O)N[C@@H](CCC(=O)O)C(=O)N[C@@H](CCCCNC(=O)[C@@H](N)CCCCNC(=O)[C@@H](N)CCCCNC(=O)CC[C@H](NC(=O)CCCCCCCCCCCCCCCCCCC(=O)O)C(=O)O)C(=O)N[C@@H](CCC(N)=O)C(=O)N[C@@H](C)C(=O)N[C@@H](C)C(=O)N[C@@H](CCC(=O)O)C(=O)N[C@@H](CCC(=O)O)C(=O)N[C@@H](Cc1ccccc1)C(=O)N[C@H](C(=O)N[C@@H](CCC(N)=O)C(=O)N[C@@H](Cc1c[nH]c2ccccc12)C(=O)N[C@@H](CC(C)C)C(=O)N[C@@H](CC(C)C)C(=O)N[C@@H](CCC(=O)O)C(=O)NCC(=O)NCC(=O)N1CCC[C@H]1C(=O)N[C@@H](CO)C(=O)N[C@@H](CO)C(=O)NCC(=O)N[C@@H](C)C(=O)N1CCC[C@H]1C(=O)N1CCC[C@H]1C(=O)N1CCC[C@H]1C(=O)N[C@@H](CO)C(N)=O)C(C)C` [Compound No. 49] (H-H[Aib]HGTFTSDYSILLEK([εLys-εLys-γGlu-C20 diacid])QAAEEFVQWLLEGGPSSGAPPPS-NH2) are 1.4 pM and 2.1 pM.
In the same order, the values of `CC[C@H](C)[C@H](NC(=O)[C@H](CO)NC(=O)[C@H](Cc1ccc(O)cc1)NC(=O)[C@H](CC(=O)O)NC(=O)[C@H](CO)NC(=O)[C@@H](NC(=O)[C@H](Cc1ccccc1)NC(=O)[C@@H](NC(=O)CNC(=O)[C@H](Cc1c[nH]cn1)NC(=O)C(C)(C)NC(=O)[C@@H](N)Cc1c[nH]cn1)[C@@H](C)O)[C@@H](C)O)C(=O)N[C@@H](Cc1ccc(O)cc1)C(=O)N[C@@H](CC(C)C)C(=O)N[C@@H](CCC(=O)O)C(=O)N[C@@H](CCCCNC(=O)[C@@H](N)CCCCNC(=O)[C@@H](N)CCCCNC(=O)CC[C@H](NC(=O)CCCCCCCCCCCCCCCCCCC(=O)O)C(=O)O)C(=O)N[C@@H](CCC(N)=O)C(=O)N[C@@H](C)C(=O)N[C@@H](C)C(=O)NC(C)(C)C(=O)N[C@@H](CCC(=O)O)C(=O)N[C@@H](Cc1ccccc1)C(=O)N[C@H](C(=O)N[C@@H](CCC(N)=O)C(=O)N[C@@H](Cc1c[nH]c2ccccc12)C(=O)N[C@@H](CC(C)C)C(=O)N[C@@H](CC(C)C)C(=O)N[C@@H](CCC(=O)O)C(=O)NCC(=O)NCC(=O)N1CCC[C@H]1C(=O)N[C@@H](CO)C(=O)N[C@@H](CO)C(=O)NCC(=O)N[C@@H](C)C(=O)N1CCC[C@H]1C(=O)N1CCC[C@H]1C(=O)N1CCC[C@H]1C(=O)N[C@@H](CO)C(N)=O)C(C)C` [Compound No. 22] (H-H[Aib]HGTFTSDYSIYLEK([εLys-εLys-γGlu-C20 diacid])QAA[Aib]EFVQWLLEGGPSSGAPPPS-NH2; N-terminus assumed) are 2 pM and 7.1 pM.
As for `CC[C@H](C)[C@H](NC(=O)[C@H](CO)NC(=O)[C@H](Cc1ccc(O)cc1)NC(=O)[C@H](CC(=O)O)NC(=O)[C@H](CO)NC(=O)[C@@H](NC(=O)[C@H](Cc1ccccc1)NC(=O)[C@@H](NC(=O)CNC(=O)[C@H](CCC(N)=O)NC(=O)C(C)(C)NC(=O)[C@@H](N)Cc1ccc(O)cc1)[C@@H](C)O)[C@@H](C)O)C(=O)N[C@@H](Cc1ccc(O)cc1)C(=O)N[C@@H](CC(C)C)C(=O)N[C@@H](CCC(=O)O)C(=O)N[C@@H](CCCCNC(=O)COCCOCCNC(=O)COCCOCCNC(=O)CC[C@H](NC(=O)CCCCCCCCCCCCCCCCCCC(=O)O)C(=O)O)C(=O)N[C@@H](CCC(N)=O)C(=O)N[C@@H](C)C(=O)N[C@@H](C)C(=O)NC(C)(C)C(=O)N[C@@H](CCC(=O)O)C(=O)N[C@@H](Cc1ccccc1)C(=O)N[C@H](C(=O)N[C@@H](CC(N)=O)C(=O)N[C@@H](Cc1c[nH]c2ccccc12)C(=O)N[C@@H](CC(C)C)C(=O)N[C@@H](CC(C)C)C(=O)N[C@@H](C)C(=O)NCC(=O)NCC(=O)N1CCC[C@H]1C(=O)N[C@@H](CO)C(=O)N[C@@H](CO)C(=O)NCC(=O)N[C@@H](C)C(=O)N1CCC[C@H]1C(=O)N1CCC[C@H]1C(=O)N1CCC[C@H]1C(=O)N[C@@H](CO)C(N)=O)C(C)C` [Compound No. 15] (H-Y[Aib]QGTFTSDYSIYLEK([AEEA-AEEA-γGlu-C20 diacid])QAA[Aib]EFVNWLLAGGPSSGAPPPS-NH2), the EC50 in test [1] came out at 1.4 pM; in test [2] it was 4.8 pM.
